Source: patent publication US10435399B2, “HDAC6 inhibitory heterocyclic compound” (TAKEDA PHARMACEUTICAL COMPANY LIMITED, priority 2017, dated 2019)

Each molecule was assayed against T1, HDAC6 enzyme (Homo sapiens, UniProt Q9UBN7) (assay: HDAC6 enzyme inhibitory activity (HDAC-Glo I/II Assay kit)). Details: 10 μM; wells without enzyme = 100% inhibition; read-out: HDAC6 inhibitory rate (%) (10 μM).
T1 construct: transducing full length HDAC6 gene into Sf-9 insect cells; GST; purchased SignalChem; host or cells: Sf-9 insect cells
T1 sequence (Q9UBN7 1-1215): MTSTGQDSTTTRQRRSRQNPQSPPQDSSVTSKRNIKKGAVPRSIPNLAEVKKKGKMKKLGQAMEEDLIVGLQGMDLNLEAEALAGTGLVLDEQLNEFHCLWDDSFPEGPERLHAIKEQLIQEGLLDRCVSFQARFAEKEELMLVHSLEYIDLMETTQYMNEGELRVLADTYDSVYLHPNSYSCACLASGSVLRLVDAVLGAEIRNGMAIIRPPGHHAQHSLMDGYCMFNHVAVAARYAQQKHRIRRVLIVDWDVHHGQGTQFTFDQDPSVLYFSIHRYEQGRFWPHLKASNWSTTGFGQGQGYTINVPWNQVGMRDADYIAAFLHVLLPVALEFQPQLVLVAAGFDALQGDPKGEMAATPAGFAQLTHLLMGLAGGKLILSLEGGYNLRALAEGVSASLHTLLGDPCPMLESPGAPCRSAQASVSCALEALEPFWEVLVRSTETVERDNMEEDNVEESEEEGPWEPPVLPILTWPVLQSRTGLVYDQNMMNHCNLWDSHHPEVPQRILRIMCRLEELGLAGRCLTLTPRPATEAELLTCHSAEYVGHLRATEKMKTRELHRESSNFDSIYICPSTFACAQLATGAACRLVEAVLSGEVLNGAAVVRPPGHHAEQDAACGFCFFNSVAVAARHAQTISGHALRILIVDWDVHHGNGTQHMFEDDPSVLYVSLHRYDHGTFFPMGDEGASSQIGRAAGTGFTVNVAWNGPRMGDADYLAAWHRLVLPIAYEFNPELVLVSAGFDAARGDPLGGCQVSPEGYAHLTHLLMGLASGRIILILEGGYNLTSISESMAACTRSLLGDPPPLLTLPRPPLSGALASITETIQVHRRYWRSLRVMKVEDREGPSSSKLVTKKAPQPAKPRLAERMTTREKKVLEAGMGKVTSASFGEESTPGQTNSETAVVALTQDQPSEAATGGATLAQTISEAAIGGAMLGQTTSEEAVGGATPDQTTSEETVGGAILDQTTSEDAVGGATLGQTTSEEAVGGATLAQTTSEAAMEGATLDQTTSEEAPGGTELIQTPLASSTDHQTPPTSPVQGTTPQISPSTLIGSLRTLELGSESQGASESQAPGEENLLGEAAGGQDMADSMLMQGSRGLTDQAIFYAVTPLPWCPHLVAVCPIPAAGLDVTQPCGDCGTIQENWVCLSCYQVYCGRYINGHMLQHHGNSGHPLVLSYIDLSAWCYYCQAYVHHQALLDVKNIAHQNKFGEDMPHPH
Type: biochemical
Method in brief: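 Full-length human HDAC6 (GST-purified, Sf-9 expressed) preincubated with compound 60 min at room temperature in Tris-HCl pH 7.5 buffer with MgCl2, KCl, NaCl, glutathione, Tween-20. HDAC-Glo I/II substrate-developer then added, 20 min room temperature, luminescence read. Inhibition relative to no-enzyme wells as 100%.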

Row | inhibition at 10 µM | Structure (SMILES)
1 | 100% | O=C(N[C@@H]1COCC[C@H]1N1Cc2c(F)cc(-c3nnc(C(F)F)o3)cc2C1=O)c1cccc(Cl)c1 [Example 190, 3-chloro-N-((3S,4R)-4-(6-(5-(difluoromethyl)-1,3,4-oxadiazol-2-yl)-4-fluoro-1-oxo-1,3-dihydro-2H-isoindol-2-yl)tetrahydro-2H-pyran-3-yl)benzamide]
2 | 101% | CCC(=O)N[C@@H]1COCC[C@H]1N1Cc2c(F)cc(-c3nnc(C(F)F)o3)cc2C1=O [Example 191, N-((3S,4R)-4-(6-(5-(difluoromethyl)-1,3,4-oxadiazol-2-yl)-4-fluoro-1-oxo-1,3-dihydro-2H-isoindol-2-yl)tetrahydro-2H-pyran-3-yl)propanamide]
3 | 100% | O=C1c2cc(-c3nnc(C(F)F)o3)cc(F)c2CN1C[C@H]1COCCN1S(=O)(=O)C1CC1 [Example 197, 2-(((3S)-4-(cyclopropylsulfonyl)morpholin-3-yl)methyl)-6-(5-(difluoromethyl)-1,3,4-oxadiazol-2-yl)-4-fluoroisoindolin-1-one]
4 | 99% | Cc1ccc(S(=O)(=O)N2CCOC[C@@H]2CN2Cc3c(F)cc(-c4nnc(C(F)F)o4)cc3C2=O)cc1 [Example 198, 6-(5-(difluoromethyl)-1,3,4-oxadiazol-2-yl)-4-fluoro-2-(((3S)-4-((4-methylphenyl)sulfonyl)morpholin-3-yl)methyl)isoindolin-1-one]
5 | 100% | O=C1c2cc(-c3nnc(C(F)F)o3)cc(F)c2CN1[C@@H]1CCOC[C@H]1NC(=O)C(F)(F)C(F)(F)F [Example 200, N-((3S,4R)-4-(6-(5-(difluoromethyl)-1,3,4-oxadiazol-2-yl)-4-fluoro-1-oxo-1,3-dihydro-2H-isoindol-2-yl)tetrahydro-2H-pyran-3-yl)-2,2,3,3,3-pentafluoropropanamide]
6 | 101% | O=C1c2cc(-c3nnc(C(F)F)o3)cc(F)c2CN1[C@@H]1CCOC[C@H]1NC(=O)C1(C(F)(F)F)CC1 [Example 201, N-((3S,4R)-4-(6-(5-(difluoromethyl)-1,3,4-oxadiazol-2-yl)-4-fluoro-1-oxo-1,3-dihydro-2H-isoindol-2-yl)tetrahydro-2H-pyran-3-yl)-1-(trifluoromethyl)cyclopropanecarboxamide]
7 | 101% | CC(C)(C(=O)N[C@@H]1COCC[C@H]1N1Cc2c(F)cc(-c3nnc(C(F)F)o3)cc2C1=O)C(F)(F)F [Example 202, N-((3S,4R)-4-(6-(5-(difluoromethyl)-1,3,4-oxadiazol-2-yl)-4-fluoro-1-oxo-1,3-dihydro-2H-isoindol-2-yl)tetrahydro-2H-pyran-3-yl)-3,3,3-trifluoro-2,2-dimethylpropanamide]
8 | 100% | CCC(F)(F)C(=O)N[C@@H]1COCC[C@H]1N1Cc2c(F)cc(-c3nnc(C(F)F)o3)cc2C1=O [Example 203, N-((3S,4R)-4-(6-(5-(difluoromethyl)-1,3,4-oxadiazol-2-yl)-4-fluoro-1-oxo-1,3-dihydro-2H-isoindol-2-yl)tetrahydro-2H-pyran-3-yl)-2,2-difluorobutanamide]
9 | 100% | CCC(F)(F)C(=O)N[C@@H]1CCOC[C@H]1N1Cc2c(F)cc(-c3nnc(C(F)F)o3)cc2C1=O [Example 204]
10 | 101% | O=C1c2cc(-c3nnc(C(F)F)o3)cc(F)c2CN1[C@@H]1COCC[C@H]1NC(=O)C1(C(F)(F)F)CCC1 [Example 205, N-((3S,4R)-3-(6-(5-(difluoromethyl)-1,3,4-oxadiazol-2-yl)-4-fluoro-1-oxo-1,3-dihydro-2H-isoindol-2-yl)tetrahydro-2H-pyran-4-yl)-1-(trifluoromethyl)cyclobutanecarboxamide]
11 | 101% | CCC(F)(F)C(=O)N[C@@H]1CCCC[C@H]1N1Cc2c(F)cc(-c3nnc(C(F)F)o3)cc2C1=O [Example 210, N-((1R,2R)-2-(6-(5-(difluoromethyl)-1,3,4-oxadiazol-2-yl)-4-fluoro-1-oxo-1,3-dihydro-2H-isoindol-2-yl)cyclohexyl)-2,2-difluorobutanamide]
12 | 100% | CC1(C(=O)N[C@@H]2CCCC[C@H]2N2Cc3c(F)cc(-c4nnc(C(F)F)o4)cc3C2=O)COC1 [Example 211, N-((1R,2R)-2-(6-(5-(difluoromethyl)-1,3,4-oxadiazol-2-yl)-4-fluoro-1-oxo-1,3-dihydro-2H-isoindol-2-yl)cyclohexyl)-3-methyloxetane-3-carboxamide]
13 | 101% | O=C1c2cc(-c3nnc(C(F)F)o3)cc(F)c2CN1[C@@H]1CCOC[C@H]1NC(=O)C1(C(F)(F)F)CCC1 [Example 212, N-((3S,4R)-4-(6-(5-(difluoromethyl)-1,3,4-oxadiazol-2-yl)-4-fluoro-1-oxo-1,3-dihydro-2H-isoindol-2-yl)tetrahydro-2H-pyran-3-yl)-1-(trifluoromethyl)cyclobutanecarboxamide]

The next lines start with the molecule.

Row | Structure (SMILES) | inhibition at 10 µM
14 | CC(C)(C)OC(=O)N1CC[C@@H](N2Cc3ncc(-c4nnc(C(F)F)o4)cc3C2=O)[C@@H](c2ccccc2)C1 [Example 192, tert-butyl (3S,4R)-4-(3-(5-(difluoromethyl)-1,3,4-oxadiazol-2-yl)-5-oxo-5,7-dihydro-6H-pyrrolo[3,4-b]pyridin-6-yl)-3-phenylpiperidine-1-carboxylate] | 100%
15 | O=C1c2cc(-c3nnc(C(F)F)o3)cnc2CN1[C@@H]1CCNC[C@@H]1c1ccccc1 [Example 193, 3-(5-(difluoromethyl)-1,3,4-oxadiazol-2-yl)-6-((3S,4R)-3-phenylpiperidin-4-yl)-6,7-dihydro-5H-pyrrolo[3,4-b]pyridin-5-one] | 102%
16 | COC(=O)N1CC[C@@H](N2Cc3ncc(-c4nnc(C(F)F)o4)cc3C2=O)[C@@H](c2ccccc2)C1 [Example 194, methyl (3S,4R)-4-(3-(5-(difluoromethyl)-1,3,4-oxadiazol-2-yl)-5-oxo-5,7-dihydro-6H-pyrrolo[3,4-b]pyridin-6-yl)-3-phenylpiperidine-carboxylate] | 100%
17 | CCC(F)(F)C(=O)N[C@@H]1CCCC[C@H]1N1Cc2ncc(-c3nnc(C(F)F)o3)cc2C1=O [Example 195, N-((1R,2R)-2-(3-(5-(difluoromethyl)-1,3,4-oxadiazol-2-yl)-5-oxo-5,7-dihydro-6H-pyrrolo[3,4-b]pyridin-6-yl)cyclohexyl)-2,2-difluorobutanamide] | 100%
18 | O=C1c2cc(-c3nnc(C(F)F)o3)cnc2CN1[C@@H]1CCCC[C@H]1NC(=O)C(F)(F)C(F)(F)F [Example 196, N-((1R,2R)-2-(3-(5-(difluoromethyl)-1,3,4-oxadiazol-2-yl)-5-oxo-5,7-dihydro-6H-pyrrolo[3,4-b]pyridin-6-yl)cyclohexyl)-2,2,3,3,3-pentafluoropropanamide] | 100%
19 | O=C1c2cc(-c3nnc(C(F)F)o3)cc(F)c2CN1C[C@H]1COCCN1S(=O)(=O)CC(F)(F)F [Example 199, 6-(5-(difluoromethyl)-1,3,4-oxadiazol-2-yl)-4-fluoro-2-(((3S)-4-((2,2,2-trifluoroethyl)sulfonyl)morpholin-3-yl)methyl)isoindolin-1-one] | 100%
20 | Cn1ccc(-c2ccccc2N2Cc3ccc(-c4nnc(C(F)F)o4)cc3C2=O)n1 [Example 206, 6-(5-(difluoromethyl)-1,3,4-oxadiazol-2-yl)-2-(2-(1-methyl-1H-pyrazol-3-yl)phenyl)isoindolin-1-one] | 100%
21 | Cn1cc(-c2ccccc2N2Cc3ccc(-c4nnc(C(F)F)o4)cc3C2=O)cn1 [Example 207, 6-(5-(difluoromethyl)-1,3,4-oxadiazol-2-yl)-2-(2-(1-methyl-1H-pyrazol-4-yl)phenyl)isoindolin-1-one] | 100%
22 | O=C1c2cc(-c3nnc(C(F)F)o3)ccc2CN1c1ccccc1-c1cccnc1 [Example 208, 6-(5-(difluoromethyl)-1,3,4-oxadiazol-2-yl)-2-(2-(pyridin-3-yl)phenyl)isoindolin-1-one] | 100%
23 | O=C1c2cc(-c3nnc(C(F)F)o3)ccc2CN1CCOc1ccccc1 [Example 209, 6-(5-(difluoromethyl)-1,3,4-oxadiazol-2-yl)-2-(2-phenoxyethyl)isoindolin-1-one] | 107%
